Data as given in patent US9808003B2, “Herbicidally active 2-(substituted-phenyl)-cyclopentane-1,3-dione compounds and derivatives thereof” (Syngenta Limited, priority 2013, dated 2017).

What was measured:
Type in all cases: in vivo
Details in all cases: 14 DAA
Avena fatua (AVEFA) = assay: Test 1B glasshouse assay, post-emergence herbicidal activity against grassy weeds
Protocol: (§1) Biological Example 1B tests the herbicidal activity of“technical” compounds (i.e. compounds not previously formulated before the test), as the herbicides under test.
(§2) An “instant formulation”, known as the “IF50”, containing 50 g/liter (i.e. 5% w/v) of the “technical” (i.e. unformulated) active ingredient (i.e. the herbicide under test), is prepared by dissolving the active ingredient in a mixture of organic solvents and emulsifier, details of which are provided in the Table below.
(§3) This IF50 is mixed with a small, variable amount of acetone to aid dissolution, before addition of a 0.5% v/v aqueous solution of the adjuvant Adigor™ (an adjuvant containing rapeseed oil methyl ester, ethoxylated alcohols, and a mixture of heavy aromatic hydrocarbons, e.g. available from Syngenta), as the aqueous diluent, to form an aqueous spray solution which contains a predetermined concentration of the active ingredient (which varies depending on the application rate of the active ingredient to the plants) and 0.5% v/v of the adjuvant Adigor™. This aqueous spray solution is suitable for spraying onto plants.
(§4) Seeds of a variety of test species are sown in standard soil in pots. After cultivation for 14 days under controlled conditions in a glasshouse (at 22/16° C., day/night; 16 hours light; 65% humidity), the plants are sprayed post-emergence with the above-mentioned aqueous spray solution containing inter alia the “technical” active ingredient (i.e. the herbicide under test) and the adjuvant Adigor™.
(§5) The test plants are then grown on under controlled conditions in the glasshouse (at 22/16° C., day/night; 16 hours light; 65% humidity) and are watered twice daily. 14 days after application of the test herbicide, the test is evaluated visually for percentage phytotoxicity to the plant (where 100%=total damage to plant; 0%=no damage to plant).
(§6) More specifically, post-emergence herbicidal activity (phytotoxicity) data, on certain tested grassy monocotyledonous weeds (and/or plants of the type Gramineae) and cereal crops in the glasshouse, are measured 14 days after application of the herbicide (14 DAA), typically for inter alia one or more of the following application rates: • (a) a post-emergence application rate of 60 g/ha of the test herbicide with or without 50 g/ha of cloquintocet-mexyl safener, and • (b) a post-emergence application rate of 90 g/ha of the test herbicide with 50 g/ha of cloquintocet-mexyl safener, and • (c) a post-emergence application rate of 120 g/ha of the test herbicide with 50 g/ha of cloquintocet-mexyl safener.
(§7) The cloquintocet-mexyl, when used, is present in the formulation containing the herbicide under test dissolved in acetone plus IF50.
(§8) The range of herbicide application rates tested sometimes includes application rates other than those shown above, and the rates can vary depending on the herbicide under test.
(§9) Herbicidal activity (phytotoxicity) is evaluated visually, and an assessed percentage phytotoxicity score is given for each herbicidal application on each plant species (with 100%=total damage to plant; 0%=no damage to plant; the assessment is recorded in increments of 1%). Two replicates are made for each experiment, and the mean herbicidal activity (phytotoxicity) data is reported.
(§10) For compounds A34, A98, A99, A87, A100, A101, A89, A120, A120A, A120B, A23, A127, A128, A89, A112 and A113 the tested weeds were as follows: Avena fatua (AVEFA), Lolium multiflorum (LOLMU), Setaria viridis (SETVI), Poa annua (POAAN), Alopecurus myosuroides (ALOMY). All five of these are grassy monocotyledonous weeds. Except for SETVI, these are all “cool-season” grassy monocotyledonous weeds.

[1] = system: Alopecurus myosuroides (ALOMY); assay: as above
Protocol: as §1, §2, §3, §4, §5, §6, §7, §8, §9, §10

Poa annua (POAAN) = assay: as above
Protocol: as §1, §2, §3, §4, §5, §6, §7, §8, §9, §10

Setaria viridis (SETVI) = assay: as above
Protocol: as §1, §2, §3, §4, §5, §6, §7, §8, §9, §10

[2] = system: Lolium multiflorum (LOLMU); assay: as above
Protocol: as §1, §2, §3, §4, §5, §6, §7, §8, §9, §10

Spring Wheat “Teal” = assay: Test 1B glasshouse assay, post-emergence herbicidal activity against cereal crops
Protocol: as §1, §2, §3, §4, §5, §6, §7, §8, §9

Winter Barley “Suzuka” = assay: as above
Protocol: as §1, §2, §3, §4, §5, §6, §7, §8, §9

Winter Wheat “Hereward” = assay: as above
Protocol: as §1, §2, §3, §4, §5, §6, §7, §8, §9

[3] = system: Spring Barley “Harrington”; assay: as above
Protocol: as §1, §2, §3, §4, §5, §6, §7, §8, §9

[4] = 30 g/ha herbicide, 50 g/ha cloquintocet-mexyl
[5] = 45 g/ha herbicide, 50 g/ha cloquintocet-mexyl
[6] = 60 g/ha herbicide, 0 g/ha cloquintocet-mexyl
[7] = 60 g/ha herbicide, 50 g/ha cloquintocet-mexyl
[8] = 60 g/ha herbicide, 0 g/ha cloquintocet-mexyl, test result no. 1 (T1)
[9] = 60 g/ha herbicide, 50 g/ha cloquintocet-mexyl, test result no. 1 (T1)
[10] = 60 g/ha herbicide, 50 g/ha cloquintocet-mexyl, test result no. 2 (T2)
[11] = 90 g/ha herbicide, 50 g/ha cloquintocet-mexyl, test result no. 2 (T2)
[12] = 120 g/ha herbicide, 50 g/ha cloquintocet-mexyl, test result no. 2 (T2)

## CCc1cc(-n2cc(Cl)cn2)cc(C)c1C1C(=O)C[C@H](CCNC(=O)c2ccccn2)C1=O (stereo partly drawn) [Compound A101]
Avena fatua (AVEFA); [4]
  Post-emergence herbicidal activity, percentage phytotoxicity, AVEFA: 73%
Avena fatua (AVEFA); [5]
  Post-emergence herbicidal activity, percentage phytotoxicity, AVEFA: 88%
Avena fatua (AVEFA); [6]
  Post-emergence herbicidal activity, percentage phytotoxicity, AVEFA: 90%
Avena fatua (AVEFA); [7]
  Post-emergence herbicidal activity, percentage phytotoxicity, AVEFA: 88%
[1]; [4]
  Post-emergence herbicidal activity, percentage phytotoxicity, ALOMY: 25%
[1]; [5]
  Post-emergence herbicidal activity, percentage phytotoxicity, ALOMY: 43%
[1]; [6]
  Post-emergence herbicidal activity, percentage phytotoxicity, ALOMY: 55%
[1]; [7]
  Post-emergence herbicidal activity, percentage phytotoxicity, ALOMY: 55%
Poa annua (POAAN); [4]
  Post-emergence herbicidal activity, percentage phytotoxicity, POAAN: 5%
Poa annua (POAAN); [5]
  Post-emergence herbicidal activity, percentage phytotoxicity, POAAN: 15%
Poa annua (POAAN); [6]
  Post-emergence herbicidal activity, percentage phytotoxicity, POAAN: 48%
Poa annua (POAAN); [7]
  Post-emergence herbicidal activity, percentage phytotoxicity, POAAN: 38%
Setaria viridis (SETVI); [4]
  Post-emergence herbicidal activity, percentage phytotoxicity, SETVI: 15%
Setaria viridis (SETVI); [5]
  Post-emergence herbicidal activity, percentage phytotoxicity, SETVI: 35%
Setaria viridis (SETVI); [6]
  Post-emergence herbicidal activity, percentage phytotoxicity, SETVI: 53%
Setaria viridis (SETVI); [7]
  Post-emergence herbicidal activity, percentage phytotoxicity, SETVI: 53%
[2]; [4]
  Post-emergence herbicidal activity, percentage phytotoxicity, LOLMU: 68%
[2]; [5]
  Post-emergence herbicidal activity, percentage phytotoxicity, LOLMU: 83%
[2]; [6]
  Post-emergence herbicidal activity, percentage phytotoxicity, LOLMU: 88%
[2]; [7]
  Post-emergence herbicidal activity, percentage phytotoxicity, LOLMU: 83%
Spring Wheat “Teal”; [4]
  Post-emergence herbicidal activity against cereal crops, percentage phytotoxicity, Spring Wheat “Teal”: 10%
Spring Wheat “Teal”; [5]
  Post-emergence herbicidal activity against cereal crops, percentage phytotoxicity, Spring Wheat “Teal”: 13%
Spring Wheat “Teal”; [6]
  Post-emergence herbicidal activity against cereal crops, percentage phytotoxicity, Spring Wheat “Teal”: 48%
Spring Wheat “Teal”; [7]
  Post-emergence herbicidal activity against cereal crops, percentage phytotoxicity, Spring Wheat “Teal”: 18%
Winter Barley “Suzuka”; [4]
  Post-emergence herbicidal activity against cereal crops, percentage phytotoxicity, Winter Barley “Suzuka”: 23%
Winter Barley “Suzuka”; [5]
  Post-emergence herbicidal activity against cereal crops, percentage phytotoxicity, Winter Barley “Suzuka”: 23%
Winter Barley “Suzuka”; [6]
  Post-emergence herbicidal activity against cereal crops, percentage phytotoxicity, Winter Barley “Suzuka”: 75%
Winter Barley “Suzuka”; [7]
  Post-emergence herbicidal activity against cereal crops, percentage phytotoxicity, Winter Barley “Suzuka”: 40%
Winter Wheat “Hereward”; [4]
  Post-emergence herbicidal activity against cereal crops, percentage phytotoxicity, Winter Wheat “Hereward”: 18%
Winter Wheat “Hereward”; [5]
  Post-emergence herbicidal activity against cereal crops, percentage phytotoxicity, Winter Wheat “Hereward”: 23%
Winter Wheat “Hereward”; [6]
  Post-emergence herbicidal activity against cereal crops, percentage phytotoxicity, Winter Wheat “Hereward”: 43%
Winter Wheat “Hereward”; [7]
  Post-emergence herbicidal activity against cereal crops, percentage phytotoxicity, Winter Wheat “Hereward”: 38%
[3]; [4]
  Post-emergence herbicidal activity against cereal crops, percentage phytotoxicity, Spring Barley “Harrington”: 18%
[3]; [5]
  Post-emergence herbicidal activity against cereal crops, percentage phytotoxicity, Spring Barley “Harrington”: 18%
[3]; [6]
  Post-emergence herbicidal activity against cereal crops, percentage phytotoxicity, Spring Barley “Harrington”: 48%
[3]; [7]
  Post-emergence herbicidal activity against cereal crops, percentage phytotoxicity, Spring Barley “Harrington”: 23%

## Cc1cc(-n2cc(Cl)cn2)cc(C)c1C1C(=O)C[C@H](CCNC(=O)c2ccccn2)C1=O (stereo partly drawn) [Compound A99]
Avena fatua (AVEFA); [8]
  Post-emergence herbicidal activity, percentage phytotoxicity, AVEFA: 50 (T1) %
Avena fatua (AVEFA); [9]
  Post-emergence herbicidal activity, percentage phytotoxicity, AVEFA: 40 (T1); %
Avena fatua (AVEFA); [10]
  Post-emergence herbicidal activity, percentage phytotoxicity, AVEFA: 48 (T2) %
Avena fatua (AVEFA); [11]
  Post-emergence herbicidal activity, percentage phytotoxicity, AVEFA: 60 (T2) %
Avena fatua (AVEFA); [12]
  Post-emergence herbicidal activity, percentage phytotoxicity, AVEFA: 78 (T2) %
[1]; [8]
  Post-emergence herbicidal activity, percentage phytotoxicity, ALOMY: 50 (T1) %
[1]; [9]
  Post-emergence herbicidal activity, percentage phytotoxicity, ALOMY: 35 (T1); %
[1]; [10]
  Post-emergence herbicidal activity, percentage phytotoxicity, ALOMY: 38 (T2) %
[1]; [11]
  Post-emergence herbicidal activity, percentage phytotoxicity, ALOMY: 58 (T2) %
[1]; [12]
  Post-emergence herbicidal activity, percentage phytotoxicity, ALOMY: 73 (T2) %
Poa annua (POAAN); [8]
  Post-emergence herbicidal activity, percentage phytotoxicity, POAAN: 70 (T1) %
Poa annua (POAAN); [9]
  Post-emergence herbicidal activity, percentage phytotoxicity, POAAN: 73 (T1); %
Poa annua (POAAN); [10]
  Post-emergence herbicidal activity, percentage phytotoxicity, POAAN: 70 (T2) %
Poa annua (POAAN); [11]
  Post-emergence herbicidal activity, percentage phytotoxicity, POAAN: 73 (T2) %
Poa annua (POAAN); [12]
  Post-emergence herbicidal activity, percentage phytotoxicity, POAAN: 75 (T2) %
Setaria viridis (SETVI); [8]
  Post-emergence herbicidal activity, percentage phytotoxicity, SETVI: 10 (T1) %
Setaria viridis (SETVI); [9]
  Post-emergence herbicidal activity, percentage phytotoxicity, SETVI: 8 (T1); %
Setaria viridis (SETVI); [10]
  Post-emergence herbicidal activity, percentage phytotoxicity, SETVI: 33 (T2) %
Setaria viridis (SETVI); [11]
  Post-emergence herbicidal activity, percentage phytotoxicity, SETVI: 68 (T2) %
Setaria viridis (SETVI); [12]
  Post-emergence herbicidal activity, percentage phytotoxicity, SETVI: 75 (T2) %
[2]; [8]
  Post-emergence herbicidal activity, percentage phytotoxicity, LOLMU: 35 (T1) %
[2]; [9]
  Post-emergence herbicidal activity, percentage phytotoxicity, LOLMU: 35 (T1); %
[2]; [10]
  Post-emergence herbicidal activity, percentage phytotoxicity, LOLMU: 55 (T2) %
[2]; [11]
  Post-emergence herbicidal activity, percentage phytotoxicity, LOLMU: 65 (T2) %
[2]; [12]
  Post-emergence herbicidal activity, percentage phytotoxicity, LOLMU: 78 (T2) %
Spring Wheat “Teal”; [8]
  Post-emergence herbicidal activity against cereal crops, percentage phytotoxicity, Spring Wheat “Teal”: 2 (T1) %
Spring Wheat “Teal”; [9]
  Post-emergence herbicidal activity against cereal crops, percentage phytotoxicity, Spring Wheat “Teal”: 1 (T1); %
Spring Wheat “Teal”; [10]
  Post-emergence herbicidal activity against cereal crops, percentage phytotoxicity, Spring Wheat “Teal”: 5 (T2) %
Spring Wheat “Teal”; [11]
  Post-emergence herbicidal activity against cereal crops, percentage phytotoxicity, Spring Wheat “Teal”: 5 (T2) %
Spring Wheat “Teal”; [12]
  Post-emergence herbicidal activity against cereal crops, percentage phytotoxicity, Spring Wheat “Teal”: 8 (T2) %
Winter Barley “Suzuka”; [8]
  Post-emergence herbicidal activity against cereal crops, percentage phytotoxicity, Winter Barley “Suzuka”: 60 (T1) %
Winter Barley “Suzuka”; [9]
  Post-emergence herbicidal activity against cereal crops, percentage phytotoxicity, Winter Barley “Suzuka”: 15 (T1); %
Winter Barley “Suzuka”; [10]
  Post-emergence herbicidal activity against cereal crops, percentage phytotoxicity, Winter Barley “Suzuka”: 14 (T2) %
Winter Barley “Suzuka”; [11]
  Post-emergence herbicidal activity against cereal crops, percentage phytotoxicity, Winter Barley “Suzuka”: 35 (T2) %
Winter Barley “Suzuka”; [12]
  Post-emergence herbicidal activity against cereal crops, percentage phytotoxicity, Winter Barley “Suzuka”: 38 (T2) %
Winter Wheat “Hereward”; [8]
  Post-emergence herbicidal activity against cereal crops, percentage phytotoxicity, Winter Wheat “Hereward”: 0 (T1) %
Winter Wheat “Hereward”; [9]
  Post-emergence herbicidal activity against cereal crops, percentage phytotoxicity, Winter Wheat “Hereward”: 1 (T1); %
Winter Wheat “Hereward”; [10]
  Post-emergence herbicidal activity against cereal crops, percentage phytotoxicity, Winter Wheat “Hereward”: 0 (T2) %
Winter Wheat “Hereward”; [11]
  Post-emergence herbicidal activity against cereal crops, percentage phytotoxicity, Winter Wheat “Hereward”: 0 (T2) %
Winter Wheat “Hereward”; [12]
  Post-emergence herbicidal activity against cereal crops, percentage phytotoxicity, Winter Wheat “Hereward”: 8 (T2) %
[3]; [8]
  Post-emergence herbicidal activity against cereal crops, percentage phytotoxicity, Spring Barley “Harrington”: 15 (T1) %
[3]; [9]
  Post-emergence herbicidal activity against cereal crops, percentage phytotoxicity, Spring Barley “Harrington”: 3 (T1); %
[3]; [10]
  Post-emergence herbicidal activity against cereal crops, percentage phytotoxicity, Spring Barley “Harrington”: 3 (T2) %
[3]; [11]
  Post-emergence herbicidal activity against cereal crops, percentage phytotoxicity, Spring Barley “Harrington”: 5 (T2) %
[3]; [12]
  Post-emergence herbicidal activity against cereal crops, percentage phytotoxicity, Spring Barley “Harrington”: 8 (T2) %
